From US9045445B2, “Glycine transporter-1 inhibitors, methods of making them, and uses thereof” (Albany Molecular Research, Inc., priority 2010, dated 2015)
Structures can show the parent of a compound that is named as a salt.

Assays:
[1] = biological target: T1, glycine transporter-2 (GlyT-2) (Homo sapiens, UniProt Q9Y345); experiment: [14C]glycine uptake assay in HEK-GlyT-2 transfected cells; assay type: cell-based; settings: HEK-GlyT-2 cells
T1 construct: expressed in transfected cells
T1 sequence (Q9Y345 1-797): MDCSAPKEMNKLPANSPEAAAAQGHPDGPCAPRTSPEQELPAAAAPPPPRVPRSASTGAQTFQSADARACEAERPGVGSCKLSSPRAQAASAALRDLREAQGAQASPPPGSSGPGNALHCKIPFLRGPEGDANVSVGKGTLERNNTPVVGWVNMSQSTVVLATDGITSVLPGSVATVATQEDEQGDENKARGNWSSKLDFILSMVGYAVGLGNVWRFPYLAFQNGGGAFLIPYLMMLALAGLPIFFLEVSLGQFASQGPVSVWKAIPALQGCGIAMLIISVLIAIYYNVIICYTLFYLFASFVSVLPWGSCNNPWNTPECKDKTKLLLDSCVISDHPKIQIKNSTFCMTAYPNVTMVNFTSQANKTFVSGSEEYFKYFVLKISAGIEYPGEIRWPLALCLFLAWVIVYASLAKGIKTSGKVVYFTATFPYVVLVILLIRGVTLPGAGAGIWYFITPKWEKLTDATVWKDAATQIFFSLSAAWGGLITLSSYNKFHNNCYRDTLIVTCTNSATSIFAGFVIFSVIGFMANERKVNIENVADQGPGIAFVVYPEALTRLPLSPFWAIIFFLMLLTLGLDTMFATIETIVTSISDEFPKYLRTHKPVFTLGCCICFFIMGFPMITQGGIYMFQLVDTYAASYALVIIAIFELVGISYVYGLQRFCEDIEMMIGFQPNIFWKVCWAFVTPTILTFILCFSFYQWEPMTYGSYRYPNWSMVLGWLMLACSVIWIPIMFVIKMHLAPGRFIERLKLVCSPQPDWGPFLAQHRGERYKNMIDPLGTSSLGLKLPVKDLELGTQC

[2] = biological target: T2, glycine transporter-1 (GlyT-1) (Homo sapiens, UniProt P48067); experiment: [14C]glycine uptake assay in JAR cells endogenously expressing GlyT-1 (scintillation proximity); assay type: cell-based; settings: JAR cells, [14C]glycine 5 μM, 3 hour incubation; read-out: GlyT-1 IC50
T2 construct: JAR cells (ATCC#HTB-144), which endogenously express GlyT-1; host or cells: JAR human choriocarcinoma cells
T2 sequence (P48067 1-706): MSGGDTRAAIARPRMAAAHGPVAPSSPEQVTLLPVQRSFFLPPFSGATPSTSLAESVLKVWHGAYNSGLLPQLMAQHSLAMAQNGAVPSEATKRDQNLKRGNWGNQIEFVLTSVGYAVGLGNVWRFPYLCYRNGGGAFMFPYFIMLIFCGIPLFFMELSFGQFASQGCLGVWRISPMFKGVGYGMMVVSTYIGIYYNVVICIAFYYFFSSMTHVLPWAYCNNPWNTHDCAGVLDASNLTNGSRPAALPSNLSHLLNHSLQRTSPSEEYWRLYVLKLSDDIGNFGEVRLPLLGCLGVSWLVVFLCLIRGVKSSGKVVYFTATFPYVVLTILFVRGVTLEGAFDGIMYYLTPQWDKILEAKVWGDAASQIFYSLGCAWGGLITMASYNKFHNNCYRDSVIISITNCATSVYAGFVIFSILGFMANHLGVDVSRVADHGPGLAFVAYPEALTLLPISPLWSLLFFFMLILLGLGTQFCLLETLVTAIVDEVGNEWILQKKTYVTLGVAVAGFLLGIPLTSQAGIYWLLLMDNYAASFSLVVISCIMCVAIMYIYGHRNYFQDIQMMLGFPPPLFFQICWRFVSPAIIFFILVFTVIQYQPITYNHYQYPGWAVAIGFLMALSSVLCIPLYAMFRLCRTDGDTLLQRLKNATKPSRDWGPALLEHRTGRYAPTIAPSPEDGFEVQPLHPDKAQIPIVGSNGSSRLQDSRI
Outline: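 IC50 comes from a four-parameter fit of nine-point, duplicate curves measuring inhibition of 5 μM [14C]glycine uptake, read by scintillation proximity after 3 h at 37 °C. Cells are human JAR, which express GlyT-1 endogenously, given 10 min compound pre-treatment in pH 7.4 buffer with 5 mM alanine and 0.75% DMSO.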

| SMILES | IC50 [1] [nM] | IC50 [2] [nM] |
| --- | --- | --- |
| Cn1cnc(S(=O)(=O)N2CCN(C3(CNC(=O)c4c(F)cccc4F)CCOCC3)CC2)c1 [compound 124, 2,6-Difluoro-N-((4-(4-(1-methyl-1H-imidazol-4-ylsulfonyl)piperazin-1-yl)tetrahydro-2H-pyran-4-yl)methyl)benzamide Hydrochloride] | > 75000 | 337 |
| CCCS(=O)(=O)N1CCN(C2(CNC(=O)c3ccc(Cl)cc3Cl)CCCOC2)CC1 (stereo not drawn) [compound 125, 2,4-Dichloro-N-((3-(4-(propylsulfonyl)piperazin-1-yl)tetrahydro-2H-pyran-3-yl)methyl)benzamide Hydrochloride] | > 75000 | 177 |
| Cn1cnc(S(=O)(=O)N2CCN(C3(CNC(=O)c4c(F)cccc4F)CCCOC3)CC2)c1 (stereo not drawn) [compound 127, 2,6-Difluoro-N-((3-(4-(1-methyl-1H-imidazol-4-ylsulfonyl)piperazin-1-yl)tetrahydro-2H-pyran-3-yl)methyl)benzamide Hydrochloride] | > 75000 | 369 |
| Cn1cc(S(=O)(=O)N2CCN(C3(CNC(=O)c4c(F)cccc4F)CCOCC3)CC2)nn1 [compound 128, 2,6-Difluoro-N-((4-(4-(1-methyl-1H-1,2,3-triazol-4-ylsulfonyl)piperazin-1-yl)tetrahydro-2H-pyran-4-yl)methyl)benzamide Hydrochloride] | > 75000 | 83 |
| Cn1cc(S(=O)(=O)N2CCN(C3(CNC(=O)c4ccc(Cl)cc4Cl)CCOCC3)CC2)nn1 [compound 129, 2,4-Dichloro-N-((4-(4-(1-methyl-1H-1,2,3-triazol-4-ylsulfonyl)piperazin-1-yl)tetrahydro-2H-pyran-4-yl)methyl)benzamide Hydrochloride] | > 75000 | 11 |
| CCCS(=O)(=O)N1CCN(C2(CNC(=O)c3ccccc3C(F)(F)F)CCC(F)(F)CC2)CC1 [compound 132, N-((4,4-Difluoro-1-(4-(propylsulfonyl)piperazin-1-yl)cyclohexyl)methyl)-2-(trifluoromethyl) benzamide Hydrochloride] | > 75000 | 64 |
| CCCS(=O)(=O)N1CCN(C2(CNC(=O)c3ccccc3OC)CCC(F)(F)CC2)CC1 [compound 133, N-((4,4-Difluoro-1-(4-(propylsulfonyl)piperazin-1-yl)cyclohexyl)methyl)-2-methoxybenzamide Hydrochloride] | > 75000 | 48 |
| CCCS(=O)(=O)N1CCN(C2(CNC(=O)c3ccc(Cl)cc3Cl)CCC(F)(F)CC2)CC1 [compound 136, 2,4-Dichloro-N-((4,4-difluoro-1-(4-(propylsulfonyl)piperazin-1-yl)cyclohexyl)methyl) benzamide Hydrochloride] | > 75000 | 36 |
| CCCS(=O)(=O)N1CCN(C2(CNC(=O)c3c(C)cc(F)cc3OC)CCC(F)(F)CC2)CC1 [compound 137, N-((4,4-Difluoro-1-(4-(propylsulfonyl)piperazin-1-yl)cyclohexyl)methyl)-4-fluoro-2-methoxy-6-methylbenzamide Hydrochloride] | > 75000 | 28 |
| CCCS(=O)(=O)N1CCN(C2(CNC(=O)c3ccccc3Cl)CCC(F)(F)CC2)CC1 [compound 139, 2-Chloro-N-((4,4-difluoro-1-(4-(propylsulfonyl)piperazin-1-yl)cyclohexyl)methyl) benzamide Hydrochloride] | > 75000 | 54 |
| CCCS(=O)(=O)N1CCN(C2(CNC(=O)c3ccccc3OC(F)(F)F)CCC(F)(F)CC2)CC1 [compound 141, N-((4,4-Difluoro-1-(4-(propylsulfonyl)piperazin-1-yl)cyclohexyl)methyl)-2-(trifluoromethoxy) benzamide Hydrochloride] | > 75000 | 48 |
| Cn1cnc(S(=O)(=O)N2CCN(C3(CNC(=O)c4ccccc4Cl)CCC(F)(F)CC3)CC2)c1 [compound 160, 2-Chloro-N-((4,4-difluoro-1-(4-(1-methyl-1H-imidazol-4-ylsulfonyl)piperazin-1-yl)cyclohexyl)methyl) benzamide Hydrochloride] | > 75000 | 9 |
| Cn1cnc(S(=O)(=O)N2CCN(C3(CNC(=O)c4ccccc4OC(F)(F)F)CCC(F)(F)CC3)CC2)c1 [compound 161, N-((4,4-difluoro-1-(4-(1-methyl-1H-imidazol-4-ylsulfonyl)piperazin-1-yl)cyclohexyl)methyl)-2-(trifluoromethoxy) benzamide Hydrochloride] | > 75000 | 1 |
| Cn1cnc(S(=O)(=O)N2CCN(C3(CNC(=O)c4c(Cl)cccc4C(F)(F)F)CCC(F)(F)CC3)CC2)c1 [compound 185, 2-Chloro-N-((4,4-difluoro-1-(4-(1-methyl-1H-imidazol-4-ylsulfonyl)piperazin-1-yl)cyclohexyl)methyl)-6-(trifluoromethyl)benzamide Hydrochloride] | > 75000 | 6 |
| O=C(NCC1(N2CCC(S(=O)(=O)CC3CC3)CC2)CCCCC1)c1ccc(Cl)cc1Cl [compound 200, 2,4-Dichloro-N-((1-(4-(cyclopropylmethyl-sulfonyl)piperidin-1-yl)cyclohexyl)methyl) benzamide Hydrochloride] | > 75000 | 1080 |

The next lines start with the values.

| IC50 [1] [nM] | IC50 [2] [nM] | SMILES |
| --- | --- | --- |
| > 75000 | 724 | O=C(NCC1(N2CCN(S(=O)(=O)CC3CC3)CC2)CCCOC1)c1c(F)cccc1F (stereo not drawn) [compound 126, N-((3-(4-(Cyclopropylmethyl-sulfonyl)piperazin-1-yl)tetrahydro-2H-pyran-3-yl)methyl)-2,6-difluorobenzamide Hydrochloride] |
| > 75000 | 42 | CCCS(=O)(=O)N1CCN(C2(CNC(=O)c3c(Cl)cccc3Cl)CCC(F)(F)CC2)CC1 [compound 135, 2,6-Dichloro-N-((4,4-difluoro-1-(4-(propylsulfonyl)piperazin-1-yl)cyclohexyl)methyl) benzamide Hydrochloride] |
| > 75000 | 25 | CCCS(=O)(=O)N1CCN(C2(CNC(=O)c3c(OC)cc(F)cc3SC)CCC(F)(F)CC2)CC1 [compound 138, N-((4,4-Difluoro-1-(4-(propylsulfonyl)piperazin-1-yl)cyclohexyl)methyl)-4-fluoro-2-methoxy-6-(methylthio)benzamide Hydrochloride] |
| > 75000 | 5 | Cn1cnc(S(=O)(=O)N2CCN(C3(CNC(=O)c4ccc(F)cc4Cl)CCC(F)(F)CC3)CC2)c1 [compound 166, 2-Chloro-N-((4,4-difluoro-1-(4-(1-methyl-1H-imidazol-4-ylsulfonyl)piperazin-1-yl)cyclohexyl)methyl)-4-fluorobenzamide Hydrochloride] |
| > 75000 | 11 | Cn1cnc(S(=O)(=O)N2CCN(C3(CNC(=O)c4c(F)cc(F)cc4F)CCC(F)(F)CC3)CC2)c1 [compound 167, N-((4,4-Difluoro-1-(4-(1-methyl-1H-imidazol-4-ylsulfonyl)piperazin-1-yl)cyclohexyl)methyl)-2,4,6-trifluorobenzamide Hydrochloride] |
| 69200 | 3 | Cn1cnc(S(=O)(=O)N2CCN(C3(CNC(=O)c4ccccc4C(F)(F)F)CCC(F)(F)CC3)CC2)c1 [compound 176, N-((4,4-Difluoro-1-(4-(1-methyl-1H-imidazol-4-ylsulfonyl)piperazin-1-yl)cyclohexyl)methyl)-2-(trifluoromethyl)benzamide Hydrochloride] |
